Converted amounts (≈) assume the structure as drawn.
Columns and labels:
[1] = system: HeLa; experiment: Tested for inhibitory effect on RNA virus RSV in HeLa cell line; assay type: functional, cell-based; settings: Homo sapiens
[2] = system: MT4; experiment: cells; settings: Homo sapiens
[3] = system: HEL; experiment: Tested for inhibitory effect on DNA virus TK-VZV (07/1) in HEL cell line; assay type: functional, cell-based; settings: Homo sapiens
[4] = system: MDCK; assay type: functional, cell-based; settings: Canis lupus familiaris
[5] = system: Vero; experiment: Tested for inhibitory effect on RNA virus JV in Vero cell line; assay type: functional, cell-based; settings: Chlorocebus sabaeus
[6] = system: HeLa; experiment: Tested for inhibitory effect on RNA virus Polio-1 in HeLa cell line; assay type: functional, cell-based; settings: Homo sapiens
[7] = system: MDCK; experiment: Tested for inhibitory effect on RNA virus Influenza A in MDCK cell line; assay type: functional, cell-based; settings: Canis lupus familiaris
[8] = system: MT4; experiment: Tested for inhibitory effect on RNA virus HIV-1 in MT-4 cell line; assay type: functional, cell-based; settings: Homo sapiens
[9] = system: HEL; experiment: Tested for inhibitory effect on DNA virus CMV (AD-169) in HEL cell line; assay type: functional, cell-based; settings: Homo sapiens
[10] = system: L1210; assay type: functional, cell-based; settings: Mus musculus
[11] = system: Vero; experiment: Tested for inhibitory effect on RNA virus SFV in Vero cell line; assay type: functional, cell-based; settings: Chlorocebus sabaeus
[12] = system: HEL; assay type: functional, cell-based; settings: Homo sapiens
[13] = system: FM3A; assay type: functional, cell-based; settings: Mus musculus
[14] = system: ESM; experiment: Tested for inhibitory effect on DNA virus TK-HSV-1(VMW 1837) in ESM cell line; assay type: functional, cell-based; settings: Homo sapiens
[15] = system: CCRF-CEM; assay type: functional, cell-based; settings: Homo sapiens
[16] = system: MDCK; experiment: Tested for inhibitory effect on RNA virus Influenza B in MDCK cell line; assay type: functional, cell-based; settings: Canis lupus familiaris
[17] = system: HEL; experiment: Tested for inhibitory effect on DNA virus CMV (Davis) in HEL cell line; assay type: functional, cell-based; settings: Homo sapiens
[18] = system: MT4; experiment: Tested for inhibitory effect on RNA virus HIV-2 in MT-4 cell line; assay type: functional, cell-based; settings: Homo sapiens
[19] = system: ESM; experiment: Tested for inhibitory effect on DNA virus HSV-2 (G) in ESM cell line; assay type: functional, cell-based; settings: Homo sapiens
[20] = system: Vero; experiment: Tested for inhibitory effect on RNA virus Coxsackie B4 in Vero cell line; assay type: functional, cell-based; settings: Chlorocebus sabaeus
[21] = system: ESM; assay type: functional, cell-based; settings: Homo sapiens
[22] = system: HEL; experiment: Tested for inhibitory effect on DNA virus VZV (Oka) in HEL cell line; assay type: functional, cell-based; settings: Homo sapiens
[23] = system: ESM; experiment: Tested for inhibitory effect on DNA virus VV in ESM cell line; assay type: functional, cell-based; settings: Homo sapiens
[24] = system: Vero; assay type: functional, cell-based; settings: Chlorocebus sabaeus
[25] = system: HEL; experiment: Tested for inhibitory effect on DNA virus VZV (YS) in HEL cell line; assay type: functional, cell-based; settings: Homo sapiens
[26] = system: Vero; experiment: Tested for inhibitory effect on RNA virus PV-3 in Vero cell line; assay type: functional, cell-based; settings: Chlorocebus sabaeus
[27] = system: HeLa; assay type: functional, cell-based; settings: Homo sapiens
[28] = system: ESM; experiment: Tested for inhibitory effect on DNA virus HSV-1(KOS) in ESM cell line; assay type: functional, cell-based; settings: Homo sapiens
[29] = system: Vero; experiment: Tested for inhibitory effect on RNA virus TV in Vero cell line; assay type: functional, cell-based; settings: Chlorocebus sabaeus
[30] = system: ESM; experiment: Tested for inhibitory effect on DNA virus TK-HSV-1 (B2006) in ESM cell line; assay type: functional, cell-based; settings: Homo sapiens
[31] = system: HEL; experiment: Tested for inhibitory effect on DNA virus TK-VZV (YS/R) in HEL cell line; assay type: functional, cell-based; settings: Homo sapiens
[32] = system: HeLa; experiment: Tested for inhibitory effect on RNA virus VSV in HeLa cell line; assay type: functional, cell-based; settings: Homo sapiens
[33] = system: Vero; experiment: Tested for inhibitory effect on RNA virus SV in Vero cell line; assay type: functional, cell-based; settings: Chlorocebus sabaeus
[34] = system: Vero; experiment: Tested for inhibitory effect on RNA virus Reo-1 in Vero cell line; assay type: functional, cell-based; settings: Chlorocebus sabaeus
[35] = system: Vero; assay type: functional, cell-based; settings: Chlorocebus sabaeus; remark: listed apart in the source

Row | Structure (SMILES) | IC50 [1] [µg/mL] | IC50 [2] [µg/mL] | IC50 [4] [µg/mL] | IC50 [5] [µg/mL] | IC50 [6] [µg/mL] | IC50 [7] [µg/mL] | IC50 [8] [µg/mL] | IC50 [10] [µg/mL] | IC50 [11] [µg/mL] | IC50 [12] [µg/mL] | IC50 [13] [µg/mL] | IC50 [14] [µg/mL] | IC50 [15] [µg/mL] | IC50 [16] [µg/mL] | IC50 [17] [µg/mL] | IC50 [18] [µg/mL] | IC50 [19] [µg/mL] | IC50 [20] [µg/mL] | IC50 [21] [µg/mL] | IC50 [23] [µg/mL] | other results
1 | C[C@H]1OC(c2n[nH]c(C(N)=O)c2O)[C@H](O)[C@@H]1O (some centres undefined) | 4 (≈ 16.4 µM) | 8.8 (≈ 36.2 µM) | 100 (≈ 411 µM) | > 40 | 55 (≈ 226 µM) | 20 (≈ 82.2 µM) | > 4 | 37 (≈ 152 µM) | > 200 | > 50 | 39 (≈ 160 µM) | 70 (≈ 288 µM) | > 49 | > 100 | > 40 | > 4 | > 300 | 70 (≈ 288 µM) | ≥ 400 | 5.5 (≈ 22.6 µM) | IC50 [3]: > 40 µg/mL; IC50 [9]: > 40 µg/mL; IC50 [22]: 40 µg/mL (≈ 164 µM); IC50 [24]: > 400 µg/mL; IC50 [25]: 22 µg/mL (≈ 90.5 µM); IC50 [26]: > 200 µg/mL; IC50 [27]: ≥ 170 µg/mL; IC50 [28]: ≥ 350 µg/mL; IC50 [29]: > 40 µg/mL; IC50 [30]: 55 µg/mL (≈ 226 µM); IC50 [31]: > 40 µg/mL; IC50 [32]: 14 µg/mL (≈ 57.6 µM); IC50 [33]: > 200 µg/mL; IC50 [34]: > 175 µg/mL
2 | Nc1nc2c(ncn2COCCO)c(=O)[nH]1 [ACYCLOVIR] | – | > 100 | – | – | – | – | – | – | – | > 200 | – | – | – | – | 22 (≈ 97.7 µM) | – | – | – | – | – | –
3 | NC(=O)c1ncn([C@@H]2O[C@H](CO)[C@@H](O)[C@H]2O)n1 [RIBAVIRIN] | 4 (≈ 16.4 µM) | 6.5 (≈ 26.6 µM) | > 200 | 5.2 (≈ 21.3 µM) | 70 (≈ 287 µM) | 4 (≈ 16.4 µM) | > 5 | 7.1 (≈ 29.1 µM) | ≥ 235 | – | 3.9 (≈ 16 µM) | 110 (≈ 450 µM) | 19 (≈ 77.8 µM) | 4 (≈ 16.4 µM) | – | > 5 | > 300 | 20 (≈ 81.9 µM) | ≥ 400 | 45 (≈ 184 µM) | IC50 [35]: > 400 µg/mL; IC50 [26]: 20 µg/mL (≈ 81.9 µM); IC50 [27]: ≥ 400 µg/mL; IC50 [28]: ≥ 350 µg/mL; IC50 [29]: 6.4 µg/mL (≈ 26.2 µM); IC50 [30]: > 135 µg/mL; IC50 [32]: 14 µg/mL (≈ 57.3 µM); IC50 [33]: ≥ 250 µg/mL; IC50 [34]: 160 µg/mL (≈ 655 µM)
